ChEMBL document CHEMBL4765408, “Design and synthesis of benzylidenecyclohexenones as TrxR inhibitors displaying high anticancer activity and inducing ROS, apoptosis, and autophagy” (Eur J Med Chem, 2020)
Active and inactive are the calls of the source. No cut-off for these calls is given here.

Key:
A549 = experiment: Antiproliferative activity against human A549 cells after 72 hrs by sulforhodamine B assay; format: functional, cell-based; settings: A549, 72 h
MDA-MB-231 [1] = experiment: Antiproliferative activity against human MDA-MB-231 cells after 72 hrs by sulforhodamine B assay; format: functional, cell-based; settings: MDA-MB-231, 72 h
MCF7 = experiment: Antiproliferative activity against human MCF7 cells after 72 hrs by sulforhodamine B assay; format: functional, cell-based; settings: MCF7, 72 h
KB = experiment: Antiproliferative activity against human KB cells after 72 hrs by sulforhodamine B assay; format: functional, cell-based
[2] = Antiproliferative activity against human KB-VIN cells after 72 hrs by sulforhodamine B assay; format: functional, cell-based; settings: KBVIN
[3] = Inhibition of TrxR in human MDA-MB-231 cells measured after 72 hrs by colorimetric method; format: cell-based
MDA-MB-231 [4] = experiment: Induction of reactive oxygen species generation in human MDA-MB-231 cells measured after 24 hrs by DCFH-DA probe based flow cytometry; format: functional, cell-based

Row | IC50 (A549) [µM] | IC50 (MDA-MB-231 [1]) [µM] | IC50 (MCF7) [µM] | IC50 (KB) [µM] | IC50 [3] [µM] | SMILES | IC50 [2] [µM] | Activity (MDA-MB-231 [4])
1 | 1.54 | 1.61 | 2.18 | 1.52 | – | COc1cc(/C=C2\CCC=CC2=O)cc(OC)c1O | 3.1 | –
2 | 4.7 | 5.07 | 9.08 | 5.82 | – | COc1cc(OC)c(/C=C2\CCC=CC2=O)c(OC)c1 | 6.45 | –
3 | > 25 | > 25 | > 25 | – | – | COc1cc(/C=C2\CNC=CC2=O)cc(OC)c1OC | – | –
4 | – | 0.82 | – | – | – | O=C1C=CCC/C1=C\c1cccc(OC(F)(F)F)c1 | – | –
5 | 3.67 | 0.68 | 4.97 | 2.32 | – | O=C1C=CCC/C1=C\c1ccc(-c2ccccc2)cc1 | 4.84 | –
6 | 4.25 | 0.67 | 5.26 | 0.88 | 0.11 | COc1cc(/C=C2\CCC=CC2=O)cc(OC)c1OC | 4.75 | Active
7 | 3.64 | 0.6 | 3.95 | 1.28 | – | CCOc1ccc(/C=C2\CCC=CC2=O)cc1OC | 4.8 | –

More lines, now with the values behind:

Row | SMILES | IC50 (A549) [µM] | IC50 (MDA-MB-231 [1]) [µM] | IC50 (MCF7) [µM] | IC50 (KB) [µM] | IC50 [3] [µM] | IC50 [2] [µM] | Activity (MDA-MB-231 [4])
8 | O=C1C=CCC/C1=C\c1cccnc1 | 1.51 | 1.05 | 2.03 | 1.52 | – | 2.81 | –
9 | COc1ccc(/C=C2\CCC=CC2=O)cc1OC | 4.68 | 0.64 | 5.23 | 0.9 | – | 5.38 | –
10 | COc1cc(/C=C2\CCC=CC2=O)cc(OC)c1 | 4.74 | 0.6 | 4.62 | 3.63 | – | 4.87 | –
11 | COc1cc(/C=C2\CN(S(=O)(=O)c3ccc(C)cc3)C=CC2=O)cc(OC)c1OC | 20.2 | 22.2 | 19.2 | – | – | – | –
12 | O=C1C=CCC/C1=C\c1ccccc1OC(F)(F)F | – | 1.01 | – | – | – | – | –
13 | COc1cc(/C=C2\CN(S(=O)(=O)c3ccccc3)C=CC2=O)cc(OC)c1OC | 22.4 | 23.3 | > 25 | – | – | – | –
14 | COc1ccc(/C=C2\CCC=CC2=O)cc1[N+](=O)[O-] | 1.48 | 0.59 | 1.68 | 1.36 | 0.63 | 1.63 | Active
